Calls of active or inactive are those of the source.

We go through five compounds from ChEMBL document CHEMBL1201862, “PubChem BioAssay data set” (2004).

Assay [1] deals with T1, RNA-binding protein pos-1 (Caenorhabditis elegans, UniProt G5EF15).
T1 sequence (G5EF15 whole entry): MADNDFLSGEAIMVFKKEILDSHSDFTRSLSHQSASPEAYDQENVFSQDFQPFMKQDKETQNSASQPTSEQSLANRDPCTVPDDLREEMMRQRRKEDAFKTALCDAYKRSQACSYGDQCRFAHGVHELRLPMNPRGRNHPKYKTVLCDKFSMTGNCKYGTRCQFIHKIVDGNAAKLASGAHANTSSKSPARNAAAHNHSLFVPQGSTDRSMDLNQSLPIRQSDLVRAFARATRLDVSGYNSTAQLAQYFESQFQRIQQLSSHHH
The assay can be described thus: inhibitors of POS-1/mex-3 RNA binding, dose response, biochemical, fluorescence polarization (AID 1964).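 Further: purified POS-1 fused to maltose binding protein made in E. coli; potency of compounds blocking POS-1 binding to fluorescent RNA.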

Assay [2] concerns the target T2, Zinc finger protein mex-5 (Caenorhabditis elegans, UniProt Q9XUB2).
T2 sequence (Q9XUB2 whole entry): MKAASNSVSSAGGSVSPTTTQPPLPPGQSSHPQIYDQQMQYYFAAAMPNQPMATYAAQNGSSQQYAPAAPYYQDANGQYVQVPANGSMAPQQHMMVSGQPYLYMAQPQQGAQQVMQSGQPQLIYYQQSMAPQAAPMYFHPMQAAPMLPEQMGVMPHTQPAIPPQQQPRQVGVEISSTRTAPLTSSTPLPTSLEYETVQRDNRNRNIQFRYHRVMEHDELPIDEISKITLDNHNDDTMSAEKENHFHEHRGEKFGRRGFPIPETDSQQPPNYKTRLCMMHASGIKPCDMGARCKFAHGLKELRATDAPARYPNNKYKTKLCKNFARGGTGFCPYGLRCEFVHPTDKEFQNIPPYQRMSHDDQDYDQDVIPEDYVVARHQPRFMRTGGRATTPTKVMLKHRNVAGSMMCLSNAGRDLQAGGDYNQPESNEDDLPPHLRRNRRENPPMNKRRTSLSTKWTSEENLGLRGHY
Nature of the assay: MEX-5/TCR-2 RNA interaction inhibitors, dose response, biochemical, C. elegans, fluorescence polarization (AID 1960).

In assay [3] the target is Intestinal-type alkaline phosphatase (Mus musculus, UniProt P24822). The assay can be described thus: PubChem AID 488785. The format is functional.
Assay [4] concerns the target T3, Alkaline phosphatase, tissue-nonspecific isozyme (Homo sapiens, UniProt P05186).
T3 sequence (P05186 whole entry): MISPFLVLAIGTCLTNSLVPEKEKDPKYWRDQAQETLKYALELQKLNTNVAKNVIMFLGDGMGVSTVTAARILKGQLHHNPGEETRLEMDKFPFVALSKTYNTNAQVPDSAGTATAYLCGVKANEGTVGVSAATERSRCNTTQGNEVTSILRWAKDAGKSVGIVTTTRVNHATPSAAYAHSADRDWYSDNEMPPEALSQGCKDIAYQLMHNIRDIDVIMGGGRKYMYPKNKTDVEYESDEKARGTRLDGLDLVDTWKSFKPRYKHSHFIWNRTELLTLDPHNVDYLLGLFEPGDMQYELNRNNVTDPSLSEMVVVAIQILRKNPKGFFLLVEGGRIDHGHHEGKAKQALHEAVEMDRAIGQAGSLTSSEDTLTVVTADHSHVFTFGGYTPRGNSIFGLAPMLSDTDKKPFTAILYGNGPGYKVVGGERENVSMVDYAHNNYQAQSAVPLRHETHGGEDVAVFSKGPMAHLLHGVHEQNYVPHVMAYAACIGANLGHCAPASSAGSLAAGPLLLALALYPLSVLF
The assay can be described thus: TNAP enzyme inhibition by screening hits, dose response, selectivity assay for mouse IAP inhibitor project, biochemical, human TNAP, uHTS hits (AID 488906). The format is functional.

Assay [5] concerns the target Intestinal-type alkaline phosphatase (Homo sapiens, UniProt P09923). The assay can be described thus: inhibition of human intestinal alkaline phosphatase – biochemical, dose response (AID 488876). Format: functional.
A further assay concerns the target Genome polyprotein (dengue virus type 2, UniProt P29990). The assay can be described thus: Dengue-2 NS5 methyltransferase inhibitors, primary screen, biochemical, confirmation dose response (AID 588689). The format is functional.
For assay [6], the target named is DNA (cytosine-5)-methyltransferase 1 (Homo sapiens, UniProt P26358). The assay can be described thus: DNMT1 methyltransferase inhibitors, confirmation, biochemical, fluorescent molecular beacon (AID 602386). The format is functional.
A short description of assay [7]: A Cell Based Secondary Assay To Explore Cytotoxicity of Compounds that Sensitize Mycobacterium Tuberculosis to Beta-Lactam Antibiotics. The format is functional.
Assay [8] is described as follows: cytotoxicity in HPDE-C7 cells, cell-based, fluorescence, HTS (AID 430). Format: functional. As to conditions: Homo sapiens.
The nature of assay [9]: cytotoxicity in KRAS-transformed pancreatic duct cells, primary screen, cell-based, fluorescence, HTS (AID 431).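 Further: cell line used: HPDE-C7K.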 Format: functional. To be noted: Homo sapiens.
In assay [10] the target is T4, Ubiquitin-conjugating enzyme E2 N (Homo sapiens, UniProt P61088).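 Further: Dose-response confirmation in a TR-FRET assay detecting UBC13-driven polyubiquitin chain formation, inhibition measured.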
T4 sequence (P61088 whole entry): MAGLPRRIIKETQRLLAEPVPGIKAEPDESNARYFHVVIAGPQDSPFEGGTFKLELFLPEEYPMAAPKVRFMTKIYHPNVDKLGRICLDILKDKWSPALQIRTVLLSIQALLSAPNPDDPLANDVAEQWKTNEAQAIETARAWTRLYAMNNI
The format is functional.

The next assay deals with T5, Hexokinase HKDC1 (Homo sapiens, UniProt Q2TB90).
T5 sequence (Q2TB90 whole entry): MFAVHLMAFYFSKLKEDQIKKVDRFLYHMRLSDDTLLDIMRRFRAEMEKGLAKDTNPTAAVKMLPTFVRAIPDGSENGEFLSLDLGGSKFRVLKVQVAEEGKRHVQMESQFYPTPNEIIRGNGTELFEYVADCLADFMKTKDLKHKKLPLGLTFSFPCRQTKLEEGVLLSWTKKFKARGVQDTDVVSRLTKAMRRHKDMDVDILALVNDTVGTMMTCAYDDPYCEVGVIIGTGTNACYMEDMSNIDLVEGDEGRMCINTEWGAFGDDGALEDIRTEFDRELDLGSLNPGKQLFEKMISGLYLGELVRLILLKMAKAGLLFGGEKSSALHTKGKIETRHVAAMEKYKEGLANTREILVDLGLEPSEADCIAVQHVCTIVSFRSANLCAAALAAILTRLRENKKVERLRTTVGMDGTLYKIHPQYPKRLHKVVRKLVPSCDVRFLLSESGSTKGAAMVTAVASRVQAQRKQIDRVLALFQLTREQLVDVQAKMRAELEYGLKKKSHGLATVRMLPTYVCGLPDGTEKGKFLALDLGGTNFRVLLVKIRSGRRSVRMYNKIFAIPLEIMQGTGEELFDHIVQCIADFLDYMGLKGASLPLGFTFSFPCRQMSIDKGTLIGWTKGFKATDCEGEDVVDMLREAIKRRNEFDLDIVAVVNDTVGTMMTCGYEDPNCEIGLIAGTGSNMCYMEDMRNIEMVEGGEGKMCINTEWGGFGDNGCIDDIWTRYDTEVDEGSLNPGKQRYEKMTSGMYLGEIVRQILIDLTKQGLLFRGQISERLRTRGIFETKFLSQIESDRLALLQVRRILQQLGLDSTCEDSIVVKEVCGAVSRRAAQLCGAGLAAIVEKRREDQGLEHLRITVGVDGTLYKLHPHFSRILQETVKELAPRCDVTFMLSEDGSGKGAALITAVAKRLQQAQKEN
Nature of the assay: HKDC1 hexokinase activators, dose response, biochemical, W721R variant (AID 504730). Format: functional.

The test system of the next assay is Escherichia coli. The assay can be described thus: microbe, parasite or virus in culture.
Assay [11] deals with T6, Short transient receptor potential channel 4 (Mus musculus, UniProt Q9QUQ5).
T6 sequence (Q9QUQ5 whole entry): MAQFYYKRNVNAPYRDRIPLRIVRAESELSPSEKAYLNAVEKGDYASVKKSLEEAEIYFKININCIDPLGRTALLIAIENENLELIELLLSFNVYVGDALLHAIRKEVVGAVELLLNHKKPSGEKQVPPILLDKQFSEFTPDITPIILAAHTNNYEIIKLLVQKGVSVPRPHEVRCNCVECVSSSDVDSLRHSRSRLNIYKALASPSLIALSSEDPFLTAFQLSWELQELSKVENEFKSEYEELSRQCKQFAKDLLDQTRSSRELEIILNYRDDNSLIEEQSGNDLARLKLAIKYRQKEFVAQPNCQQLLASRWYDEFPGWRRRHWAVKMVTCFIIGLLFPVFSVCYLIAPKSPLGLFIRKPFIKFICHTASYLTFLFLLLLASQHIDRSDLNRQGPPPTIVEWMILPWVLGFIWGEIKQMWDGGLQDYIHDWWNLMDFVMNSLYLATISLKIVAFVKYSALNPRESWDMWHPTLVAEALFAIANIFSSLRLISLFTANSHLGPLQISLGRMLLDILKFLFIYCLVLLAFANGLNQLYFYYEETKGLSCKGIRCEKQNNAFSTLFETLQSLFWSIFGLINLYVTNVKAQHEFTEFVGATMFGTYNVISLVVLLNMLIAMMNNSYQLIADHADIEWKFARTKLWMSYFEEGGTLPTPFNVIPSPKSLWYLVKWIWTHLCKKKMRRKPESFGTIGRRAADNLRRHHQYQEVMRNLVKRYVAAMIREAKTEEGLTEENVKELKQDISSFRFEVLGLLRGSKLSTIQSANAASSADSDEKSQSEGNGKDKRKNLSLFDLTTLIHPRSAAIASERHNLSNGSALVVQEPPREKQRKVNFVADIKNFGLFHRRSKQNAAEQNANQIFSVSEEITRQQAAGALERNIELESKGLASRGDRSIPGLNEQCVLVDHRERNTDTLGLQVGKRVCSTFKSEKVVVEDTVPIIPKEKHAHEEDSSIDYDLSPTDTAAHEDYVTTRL
The assay can be described thus: mouse TRPC4 channel inhibitors, dose response, cell-based, HEK293 TRPC4/mu-opioid, Fluo-4 calcium (AID 434942).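 Further: potency of inhibitors blocking the TRPC4 calcium response.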 Format: functional.

Assay [12] has as its target T7, Corticotropin-releasing factor receptor 2/Corticotropin-releasing factor-binding protein (Homo sapiens, UniProt P24387+Q13324).
T7 sequence (Q13324 whole entry): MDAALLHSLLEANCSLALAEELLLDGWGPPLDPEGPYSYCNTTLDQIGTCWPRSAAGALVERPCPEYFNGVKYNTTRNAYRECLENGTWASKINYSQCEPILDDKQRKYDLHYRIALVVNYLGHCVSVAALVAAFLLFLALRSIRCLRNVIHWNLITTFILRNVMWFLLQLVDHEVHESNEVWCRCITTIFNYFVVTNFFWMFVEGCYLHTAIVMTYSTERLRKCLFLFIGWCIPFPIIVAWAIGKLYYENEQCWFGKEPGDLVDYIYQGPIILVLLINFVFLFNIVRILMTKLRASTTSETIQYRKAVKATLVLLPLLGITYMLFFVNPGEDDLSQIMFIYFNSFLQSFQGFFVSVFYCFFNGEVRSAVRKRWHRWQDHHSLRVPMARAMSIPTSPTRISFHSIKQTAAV
T7 sequence (P24387 whole entry): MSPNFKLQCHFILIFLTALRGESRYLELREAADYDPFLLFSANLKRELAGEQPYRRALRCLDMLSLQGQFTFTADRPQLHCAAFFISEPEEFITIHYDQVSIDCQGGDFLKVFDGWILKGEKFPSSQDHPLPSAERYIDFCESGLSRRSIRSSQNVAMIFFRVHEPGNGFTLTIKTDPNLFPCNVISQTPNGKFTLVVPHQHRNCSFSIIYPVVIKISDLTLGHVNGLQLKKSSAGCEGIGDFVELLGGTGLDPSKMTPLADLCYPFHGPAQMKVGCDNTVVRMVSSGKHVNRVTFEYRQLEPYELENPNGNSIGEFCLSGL
The assay can be described thus: activators of CRF receptor 2 with binding protein – uHTS hits, confirmation (AID 602473). Format: functional. As to conditions: read-out: EC50_Mean.

For assay [13], the target named is Bifunctional protein GlmU (Mycobacterium tuberculosis, UniProt P9WMN3). Nature of the assay: Inhibitors of Mycobacterial Glucosamine-1-phosphate acetyl transferase (GlmU). Secondary screen. Details: species or system Mycobacterium tuberculosis H37Rv.
The target in assay [14] is Induced myeloid leukemia cell differentiation protein Mcl-1 (Homo sapiens, UniProt Q07820). Format: functional.
In assay [15] the target is DNA dC->dU-editing enzyme APOBEC-3A (Homo sapiens, UniProt P31941). The assay can be described thus: APOBEC3A DNA deaminase inhibitors, dose response, biochemical (AID 504722). Format: functional.
The target of assay [16] is DNA dC->dU-editing enzyme APOBEC-3G (Homo sapiens, UniProt Q9HC16). Nature of the assay: Dose Response confirmation of small molecule APOBEC3G DNA Deaminase Inhibitors via a fluorescence-based single-stranded DNA deaminase assay. [Related pubchem assays (depositor defined):AID493012, AID493028]. The format is functional.
DNA dC->dU-editing enzyme APOBEC-3G, sequence (Q9HC16 whole entry): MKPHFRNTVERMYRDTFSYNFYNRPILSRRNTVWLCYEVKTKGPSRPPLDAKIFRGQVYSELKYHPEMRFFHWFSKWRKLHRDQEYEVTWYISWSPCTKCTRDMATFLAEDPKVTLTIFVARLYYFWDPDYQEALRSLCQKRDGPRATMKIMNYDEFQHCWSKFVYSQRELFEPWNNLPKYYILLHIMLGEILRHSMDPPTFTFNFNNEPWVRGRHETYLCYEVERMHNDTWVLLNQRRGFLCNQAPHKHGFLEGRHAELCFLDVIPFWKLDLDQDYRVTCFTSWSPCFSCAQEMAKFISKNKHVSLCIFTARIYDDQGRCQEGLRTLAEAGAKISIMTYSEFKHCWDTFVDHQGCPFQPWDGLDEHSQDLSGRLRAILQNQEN

Intestinal-type alkaline phosphatase (Homo sapiens, UniProt P09923), sequence (P09923 whole entry): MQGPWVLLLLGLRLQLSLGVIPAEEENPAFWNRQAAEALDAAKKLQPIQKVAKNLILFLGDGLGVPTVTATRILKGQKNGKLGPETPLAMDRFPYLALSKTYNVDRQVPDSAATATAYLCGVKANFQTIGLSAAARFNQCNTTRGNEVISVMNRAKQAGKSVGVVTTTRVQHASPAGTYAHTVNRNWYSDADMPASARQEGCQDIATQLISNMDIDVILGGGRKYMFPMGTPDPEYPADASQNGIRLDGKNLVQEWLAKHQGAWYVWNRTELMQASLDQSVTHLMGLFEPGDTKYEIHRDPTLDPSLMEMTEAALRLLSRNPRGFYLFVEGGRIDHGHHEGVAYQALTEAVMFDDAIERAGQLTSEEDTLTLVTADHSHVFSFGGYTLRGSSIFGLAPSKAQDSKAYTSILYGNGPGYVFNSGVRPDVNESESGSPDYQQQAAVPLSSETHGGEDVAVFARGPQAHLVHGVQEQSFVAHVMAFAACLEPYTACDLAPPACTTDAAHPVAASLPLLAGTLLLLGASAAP
Intestinal-type alkaline phosphatase (Mus musculus, UniProt P24822), sequence (P24822 whole entry): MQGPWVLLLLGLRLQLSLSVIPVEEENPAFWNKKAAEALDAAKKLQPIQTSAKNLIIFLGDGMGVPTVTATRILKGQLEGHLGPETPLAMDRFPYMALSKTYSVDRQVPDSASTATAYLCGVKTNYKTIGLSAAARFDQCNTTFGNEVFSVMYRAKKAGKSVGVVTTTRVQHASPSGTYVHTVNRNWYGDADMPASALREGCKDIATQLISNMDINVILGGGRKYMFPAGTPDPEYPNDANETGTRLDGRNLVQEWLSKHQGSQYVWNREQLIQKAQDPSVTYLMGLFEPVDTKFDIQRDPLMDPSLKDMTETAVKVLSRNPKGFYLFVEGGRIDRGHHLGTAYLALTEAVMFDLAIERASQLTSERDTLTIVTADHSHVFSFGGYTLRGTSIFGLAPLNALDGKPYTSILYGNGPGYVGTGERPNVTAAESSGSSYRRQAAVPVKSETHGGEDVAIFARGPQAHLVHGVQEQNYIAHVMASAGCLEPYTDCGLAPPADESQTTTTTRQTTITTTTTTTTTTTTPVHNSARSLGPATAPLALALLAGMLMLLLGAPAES
Genome polyprotein, sequence (P29990 2492-3391 limits assumed): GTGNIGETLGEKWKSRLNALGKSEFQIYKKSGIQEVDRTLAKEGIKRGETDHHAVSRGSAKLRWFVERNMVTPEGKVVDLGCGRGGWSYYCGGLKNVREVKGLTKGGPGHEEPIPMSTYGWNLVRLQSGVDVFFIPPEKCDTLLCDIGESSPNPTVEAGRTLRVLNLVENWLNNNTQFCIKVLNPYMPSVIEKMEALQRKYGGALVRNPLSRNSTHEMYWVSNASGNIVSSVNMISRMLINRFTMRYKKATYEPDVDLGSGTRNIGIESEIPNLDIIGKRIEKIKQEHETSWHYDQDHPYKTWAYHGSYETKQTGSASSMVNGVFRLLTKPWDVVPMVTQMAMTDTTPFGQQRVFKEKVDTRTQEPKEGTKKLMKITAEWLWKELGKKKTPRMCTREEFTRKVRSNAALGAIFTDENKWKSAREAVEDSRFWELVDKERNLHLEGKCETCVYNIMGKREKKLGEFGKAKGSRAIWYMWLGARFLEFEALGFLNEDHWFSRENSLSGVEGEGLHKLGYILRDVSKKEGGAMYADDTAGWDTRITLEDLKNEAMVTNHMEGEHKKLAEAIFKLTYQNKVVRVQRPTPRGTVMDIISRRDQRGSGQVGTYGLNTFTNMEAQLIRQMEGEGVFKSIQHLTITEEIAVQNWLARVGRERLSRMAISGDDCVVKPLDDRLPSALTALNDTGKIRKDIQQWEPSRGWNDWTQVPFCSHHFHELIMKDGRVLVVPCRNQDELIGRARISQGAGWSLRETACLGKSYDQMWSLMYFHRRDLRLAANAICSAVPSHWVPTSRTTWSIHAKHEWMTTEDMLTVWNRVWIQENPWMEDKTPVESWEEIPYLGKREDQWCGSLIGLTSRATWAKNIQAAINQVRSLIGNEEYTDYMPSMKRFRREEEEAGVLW
Induced myeloid leukemia cell differentiation protein Mcl-1, sequence (Q07820 whole entry): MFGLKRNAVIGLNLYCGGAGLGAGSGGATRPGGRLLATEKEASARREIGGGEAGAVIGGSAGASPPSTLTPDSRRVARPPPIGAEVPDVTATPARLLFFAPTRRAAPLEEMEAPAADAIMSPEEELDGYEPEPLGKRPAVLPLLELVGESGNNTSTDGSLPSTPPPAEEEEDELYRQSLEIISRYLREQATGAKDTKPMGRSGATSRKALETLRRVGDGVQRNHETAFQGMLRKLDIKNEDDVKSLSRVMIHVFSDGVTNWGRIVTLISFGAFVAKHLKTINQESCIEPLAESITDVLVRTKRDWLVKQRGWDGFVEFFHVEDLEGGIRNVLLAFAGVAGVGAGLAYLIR
DNA dC->dU-editing enzyme APOBEC-3A, sequence (P31941 whole entry): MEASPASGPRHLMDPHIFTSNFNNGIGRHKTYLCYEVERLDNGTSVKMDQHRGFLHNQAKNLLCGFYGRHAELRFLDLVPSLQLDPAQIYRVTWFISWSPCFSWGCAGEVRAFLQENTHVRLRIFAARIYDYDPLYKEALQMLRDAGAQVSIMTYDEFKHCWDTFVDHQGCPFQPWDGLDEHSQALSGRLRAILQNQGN
Bifunctional protein GlmU, sequence (P9WMN3 whole entry): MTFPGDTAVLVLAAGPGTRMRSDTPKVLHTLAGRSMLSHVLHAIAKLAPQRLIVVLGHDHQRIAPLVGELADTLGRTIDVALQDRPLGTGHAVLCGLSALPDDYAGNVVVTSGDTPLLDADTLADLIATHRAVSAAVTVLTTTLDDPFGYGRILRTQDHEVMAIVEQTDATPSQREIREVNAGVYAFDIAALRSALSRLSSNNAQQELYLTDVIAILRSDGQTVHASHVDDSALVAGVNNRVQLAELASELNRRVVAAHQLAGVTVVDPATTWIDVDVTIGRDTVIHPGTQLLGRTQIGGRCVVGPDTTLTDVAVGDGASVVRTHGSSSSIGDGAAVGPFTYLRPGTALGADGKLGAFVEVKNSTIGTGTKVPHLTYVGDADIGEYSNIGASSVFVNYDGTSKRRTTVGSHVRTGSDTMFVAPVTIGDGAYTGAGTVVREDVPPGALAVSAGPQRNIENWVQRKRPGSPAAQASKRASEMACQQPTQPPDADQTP
DNA (cytosine-5)-methyltransferase 1, sequence (P26358 whole entry): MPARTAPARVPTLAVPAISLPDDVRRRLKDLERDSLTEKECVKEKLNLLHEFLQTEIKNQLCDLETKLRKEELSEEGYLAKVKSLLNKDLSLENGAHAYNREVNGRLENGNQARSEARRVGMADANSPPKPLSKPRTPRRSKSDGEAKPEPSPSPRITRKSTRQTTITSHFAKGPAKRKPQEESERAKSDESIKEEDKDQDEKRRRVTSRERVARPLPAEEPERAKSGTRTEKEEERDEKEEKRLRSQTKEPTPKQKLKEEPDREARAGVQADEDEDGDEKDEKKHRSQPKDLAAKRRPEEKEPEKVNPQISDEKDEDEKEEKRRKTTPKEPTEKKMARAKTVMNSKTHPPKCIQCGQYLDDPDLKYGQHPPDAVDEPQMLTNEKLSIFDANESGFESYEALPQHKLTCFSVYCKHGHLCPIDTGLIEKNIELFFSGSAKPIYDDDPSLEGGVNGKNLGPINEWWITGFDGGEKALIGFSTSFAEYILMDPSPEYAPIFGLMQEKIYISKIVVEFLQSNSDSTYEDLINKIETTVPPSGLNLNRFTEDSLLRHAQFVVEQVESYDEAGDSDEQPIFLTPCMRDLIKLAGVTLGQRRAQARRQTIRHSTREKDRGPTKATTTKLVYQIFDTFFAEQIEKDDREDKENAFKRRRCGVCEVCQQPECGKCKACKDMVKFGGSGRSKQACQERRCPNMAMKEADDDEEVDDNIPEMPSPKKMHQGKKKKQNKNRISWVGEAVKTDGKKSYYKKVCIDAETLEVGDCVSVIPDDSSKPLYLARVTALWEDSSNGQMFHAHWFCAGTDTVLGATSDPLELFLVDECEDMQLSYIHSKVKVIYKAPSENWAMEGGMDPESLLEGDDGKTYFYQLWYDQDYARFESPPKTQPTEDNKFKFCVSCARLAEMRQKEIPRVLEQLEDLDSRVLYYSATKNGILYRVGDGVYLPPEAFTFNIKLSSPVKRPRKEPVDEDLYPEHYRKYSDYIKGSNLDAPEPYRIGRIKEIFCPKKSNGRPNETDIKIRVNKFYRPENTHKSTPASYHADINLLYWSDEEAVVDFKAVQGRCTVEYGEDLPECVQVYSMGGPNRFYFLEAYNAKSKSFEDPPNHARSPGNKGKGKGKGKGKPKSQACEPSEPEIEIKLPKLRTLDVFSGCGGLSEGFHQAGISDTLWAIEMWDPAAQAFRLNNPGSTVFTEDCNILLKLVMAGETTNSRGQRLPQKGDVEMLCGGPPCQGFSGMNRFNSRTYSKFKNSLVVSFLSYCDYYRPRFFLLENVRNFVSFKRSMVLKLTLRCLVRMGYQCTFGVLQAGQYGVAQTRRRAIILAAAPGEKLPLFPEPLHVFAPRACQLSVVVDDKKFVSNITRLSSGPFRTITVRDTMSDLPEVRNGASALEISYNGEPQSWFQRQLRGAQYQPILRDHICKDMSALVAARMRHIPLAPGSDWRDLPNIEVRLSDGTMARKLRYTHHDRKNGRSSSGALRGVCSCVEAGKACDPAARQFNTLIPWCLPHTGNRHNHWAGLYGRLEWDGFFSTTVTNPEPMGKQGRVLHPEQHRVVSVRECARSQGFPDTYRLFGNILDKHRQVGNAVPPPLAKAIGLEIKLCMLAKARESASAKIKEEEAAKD

As for `CN1C(=O)NC(=O)/C(=C\c2ccc([N+](=O)[O-])o2)C1=O`, the EC50 in assay [1] was 33.3 µM (active); in assay [2], 20.6 µM (active). The IC50 is > 100 µM (inactive) in assay [3]; > 100 µM (inactive) in [4]; > 100 µM (inactive) in [5]; 42.6 µM (active) on Genome polyprotein; 2.08 µM (active) in assay [6].

Consider `CCN(CC)CCCNC(=O)c1c(O)c2ccccc2n(Cc2ccccc2)c1=O`, for which the CC50 in assay [7] was 32 µM (active). The values for the EC50 (in [8]; in assay [9]; at Hexokinase HKDC1) were > 20 µM (not active), > 20 µM (not active) and > 80 µM (inactive), respectively. Besides, in assay [10], the IC50 is > 20 µM (inactive). In the assay on Escherichia coli, the AC50 was 23.5 µM (active).

For `O=C(c1ccc2c(c1)OCO2)C1CCCN(Cc2cc(F)ccc2-n2cccn2)C1` (centres undefined), the values for the EC50 in [11] and in assay [12] were 5.96 µM (active) and > 53 µM (inactive), respectively.

For the compound `O=C1CSC(=S)N1/N=C/c1ccc(O)c(O)c1O`, the EC50 in [1] was 5.17 µM (inconclusive); in assay [2], 0.668 µM (inconclusive). The IC50 is 7.79 µM (active) in assay [13]; 1.17 µM (active) in [14]; 4.15 µM (active) in assay [3]; 58.5 µM (active) in assay [4]; > 100 µM (inactive) in assay [5].

Regarding `Sc1nnc(-c2ccccn2)n1/N=C/c1ccc(Cl)cc1`, the figures for the IC50 in assay [15] and in assay [16] were > 100 µM (inactive) and 3.33 µM (active), respectively.
